Calls of active or inactive are those of the source.
Key:
[1] = biological target: T1, Neuronal acetylcholine receptor subunit alpha-7 (Homo sapiens, UniProt P36544); experiment: Positive allosteric modulation of human alpha7 nAChR expressed in Xenopus laevis oocytes assessed as increase in acetylcholine-induced channel current at 10 uM at -90 mV holding potential preincubated for 2 mins followed by co-application with acetylcholine for 10 secs by two-electrode voltage clamp method relative to control; assay type: cell-based
T1 sequence (P36544 whole entry): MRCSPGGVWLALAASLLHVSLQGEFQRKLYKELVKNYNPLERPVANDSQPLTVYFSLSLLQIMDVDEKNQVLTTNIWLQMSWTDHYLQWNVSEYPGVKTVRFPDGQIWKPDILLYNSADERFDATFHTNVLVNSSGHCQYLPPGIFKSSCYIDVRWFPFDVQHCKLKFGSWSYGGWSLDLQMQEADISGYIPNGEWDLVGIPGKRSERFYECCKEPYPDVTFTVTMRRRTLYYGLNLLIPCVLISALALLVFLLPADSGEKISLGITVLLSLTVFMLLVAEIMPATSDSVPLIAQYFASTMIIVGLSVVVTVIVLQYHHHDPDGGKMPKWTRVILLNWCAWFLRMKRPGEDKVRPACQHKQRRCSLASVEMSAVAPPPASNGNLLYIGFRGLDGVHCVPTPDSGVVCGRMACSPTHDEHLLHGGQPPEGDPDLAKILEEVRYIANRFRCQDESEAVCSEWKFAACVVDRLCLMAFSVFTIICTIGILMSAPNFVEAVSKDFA

[2] = biological target: T1, Neuronal acetylcholine receptor subunit alpha-7; experiment: Agonist activity at human alpha7 nAChR expressed in Xenopus laevis oocytes assessed as induction of channel current at -90 mV holding potential by two-electrode voltage clamp method; assay type: cell-based
[3] = biological target: T1, Neuronal acetylcholine receptor subunit alpha-7; experiment: Positive allosteric modulation of human alpha7 nAChR expressed in Xenopus laevis oocytes assessed as increase in acetylcholine-induced channel current at -90 mV holding potential preincubated for 2 mins followed by co-application with acetylcholine for 10 secs by two-electrode voltage clamp method; assay type: cell-based
[4] = system: Mus musculus; experiment: Anti-schizophrenic activity in C57BL/6J mouse assessed as protection against MK-801-induced auditory gating deficit by measuring prepulse inhibition impairment at 1 mg/kg, ip at 8 to 16 dB prepulse intensity (reference value: 11%); assay type: functional; parameters: scale not given: the % may be the effect or the level left

Structure (SMILES)	%max [1]	Activity [2]	EC50 [3] [µM]	Activity [4] [%]
Cc1ccc(S(=O)(=O)Nc2nc3ncn(-c4c(C)cccc4Cl)c(=O)c3s2)cc1	97%	inactive	–	–
Cc1cccc(Cl)c1-n1cnc2nc(SCc3ccc(Br)cc3)sc2c1=O	320%	inactive	–	–
Cc1ccc(Nc2nc3ncn(-c4c(C)cccc4Cl)c(=O)c3s2)cc1F	387%	inactive	5.65	–
Cc1cccc(Nc2nc3ncn(-c4c(C)cccc4Cl)c(=O)c3s2)c1	1540%	inactive	–	–
Cc1ccc(CSc2nc3ncn(-c4c(C)cccc4Cl)c(=O)c3s2)cc1	321%	inactive	–	–
Cc1cccc(Cl)c1-n1cnc2nc(Nc3cccc(Cl)c3)sc2c1=O	300%	inactive	–	–
Cc1ccc(Nc2nc3ncn(-c4c(C)cccc4Cl)c(=O)c3s2)cc1C	650%	inactive	–	–
Cc1cccc(Cl)c1-n1cnc2nc(SCc3ccc(F)cc3)sc2c1=O	788%	inactive	2.17	–
O=c1c2sc(SCc3ccccc3)nc2ncn1-c1ccccc1F	127%	inactive	–	–
Cc1nc(Cl)cc(Nc2nc3ncn(-c4c(C)cccc4Cl)c(=O)c3s2)n1	320%	inactive	–	–
Cc1cccc(Cl)c1-n1cnc2nc(SCc3ccc(Cl)cc3)sc2c1=O	444%	inactive	1.19	–
Cc1cccc(Cl)c1-n1cnc2nc(Nc3ccc(F)c(F)c3)sc2c1=O	300%	inactive	–	–
O=c1c2sc(SCc3ccccc3)nc2ncn1-c1cccc(F)c1	119%	inactive	–	–
Cc1ccccc1-n1cnc2nc(SCc3ccccc3)sc2c1=O	171%	inactive	–	–
Cc1cccc(Cl)c1-n1cnc2nc(Nc3ccccc3F)sc2c1=O	200%	inactive	–	–
Cc1cccc(Cl)c1-n1cnc2nc(NCc3ccccc3)sc2c1=O	inactive	inactive	–	–
Cc1ccc(N(C)c2nc3ncn(-c4c(C)cccc4Cl)c(=O)c3s2)cc1	107%	inactive	–	–
Cc1cccc(Cl)c1-n1cnc2nc(SCc3ccccc3F)sc2c1=O	558%	inactive	2.05	–
Cc1cccc(Cl)c1-n1cnc2nc(Nc3ccc(Cl)cc3)sc2c1=O	200%	inactive	–	–
Cc1cccc(Cl)c1-n1cnc2nc(Nc3ccncn3)sc2c1=O	101%	inactive	–	–
CCCNc1nc2ncn(-c3c(C)cccc3Cl)c(=O)c2s1	inactive	inactive	–	–
Cc1cccc(Cl)c1-n1cnc2nc(Nc3ccc(OC(F)(F)F)cc3)sc2c1=O	200%	inactive	–	–
Cc1cc(Cl)cc(Nc2nc3ncn(-c4c(C)cccc4Cl)c(=O)c3s2)c1	305%	inactive	–	–
Cc1ccc(CNc2nc3ncn(-c4c(C)cccc4Cl)c(=O)c3s2)cc1	111%	inactive	–	–
Cc1ccc(Nc2nc3ncn(-c4c(C)cccc4Cl)c(=O)c3s2)cc1	1620%	inactive	8.45	–
CN1CCN(C2=Nc3cc(Cl)ccc3Nc3ccccc32)CC1 [CLOZAPINE]	–	–	–	32

Structure (SMILES)	%max [1]	Activity [2]	EC50 [3] [µM]	Activity [4] [%]
Cc1cccc(Cl)c1-n1cnc2nc(Nc3ccc(Cl)nn3)sc2c1=O	inactive	inactive	–	–
Cc1cccc(Cl)c1Nc1ncnc2nc(SCc3ccccc3)sc12	33%	inactive	–	–
Cc1cccc(Cl)c1-n1cnc2nc(SCCCc3ccccc3)sc2c1=O	174%	inactive	–	–
Cc1ccc(C(=O)Nc2nc3ncn(-c4c(C)cccc4Cl)c(=O)c3s2)cc1	450%	inactive	20.4	–
Cc1ccc(Sc2nc3ncn(-c4c(C)cccc4Cl)c(=O)c3s2)cc1	226%	inactive	–	–
Cc1cccc(Cl)c1-n1cnc2nc(Nc3cc(Cl)ncn3)sc2c1=O	200%	inactive	–	–
Cc1cccc(Cl)c1-n1cnc2nc(Nc3ccccc3)sc2c1=O	300%	inactive	–	–
O=c1c2sc(SCc3ccccc3)nc2ncn1-c1ccc(F)cc1	75%	inactive	–	–
Cc1cc(Nc2nc3ncn(-c4c(C)cccc4Cl)c(=O)c3s2)cc(C)c1C	600%	inactive	–	–
Cc1cc(C)cc(Nc2nc3ncn(-c4c(C)cccc4Cl)c(=O)c3s2)c1	1100%	inactive	–	–
Cc1cccc(Cl)c1-n1cnc2nc(SCc3ccc(F)cc3F)sc2c1=O	1050%	inactive	3.54	–
CCc1ccc(Nc2nc3ncn(-c4c(C)cccc4Cl)c(=O)c3s2)cc1	250%	inactive	–	–
Cc1cccc(Cl)c1-n1cnc2nc(Nc3ccc(F)cc3)sc2c1=O	250%	inactive	–	–
Cc1ccccc1Nc1nc2ncn(-c3c(C)cccc3Cl)c(=O)c2s1	300%	inactive	–	–
Cc1cccc(Cl)c1-n1cnc2nc(Nc3ccc(Br)cc3)sc2c1=O	150%	inactive	–	–
Cc1cccc(Cl)c1-n1cnc2nc(Nc3cccc(F)c3)sc2c1=O	450%	inactive	–	–
Cc1cccc(Cl)c1-n1cnc2nc(SCCc3ccccc3)sc2c1=O	112%	inactive	–	–
COc1ccc(Nc2nc3ncn(-c4c(C)cccc4Cl)c(=O)c3s2)cc1	200%	inactive	–	–
O=c1c2sc(SCc3ccccc3)nc2ncn1-c1ccccc1Cl	217%	inactive	–	–
Cc1cccc(Cl)c1-n1cnc2nc(Nc3ccccn3)sc2c1=O	inactive	inactive	–	–
Cc1cccc(Cl)c1-n1cnc2nc(SCc3cccc(F)c3)sc2c1=O	1140%	inactive	7.65	–
COc1ccc(CSc2nc3ncn(-c4c(C)cccc4Cl)c(=O)c3s2)cc1	292%	inactive	–	–
Cc1ccc(-c2nc3ncn(-c4c(C)cccc4Cl)c(=O)c3s2)cc1	185%	inactive	–	–
Cc1ccc(Nc2ccc3ncn(-c4c(C)cccc4Cl)c(=O)c3c2)cc1	63%	inactive	–	–
O=c1c2sc(SCc3ccccc3)nc2ncn1-c1ccc(Cl)cc1	104%	inactive	–	–
